Data taken from ChEMBL document CHEMBL5233278, “Recent Advances in the Medicinal Chemistry of Farnesoid X Receptor” (J Med Chem, 2021).
pEC50, pIC50: −log10 of the molar value.

Tests used:
Bile acid receptor [1] = target: T1, Bile acid receptor (Homo sapiens, UniProt Q96RI1); experiment: Agonist activity at FXR (unknown origin) incubated for 180 mins by TR-FRET assay
T1 sequence (Q96RI1 whole entry): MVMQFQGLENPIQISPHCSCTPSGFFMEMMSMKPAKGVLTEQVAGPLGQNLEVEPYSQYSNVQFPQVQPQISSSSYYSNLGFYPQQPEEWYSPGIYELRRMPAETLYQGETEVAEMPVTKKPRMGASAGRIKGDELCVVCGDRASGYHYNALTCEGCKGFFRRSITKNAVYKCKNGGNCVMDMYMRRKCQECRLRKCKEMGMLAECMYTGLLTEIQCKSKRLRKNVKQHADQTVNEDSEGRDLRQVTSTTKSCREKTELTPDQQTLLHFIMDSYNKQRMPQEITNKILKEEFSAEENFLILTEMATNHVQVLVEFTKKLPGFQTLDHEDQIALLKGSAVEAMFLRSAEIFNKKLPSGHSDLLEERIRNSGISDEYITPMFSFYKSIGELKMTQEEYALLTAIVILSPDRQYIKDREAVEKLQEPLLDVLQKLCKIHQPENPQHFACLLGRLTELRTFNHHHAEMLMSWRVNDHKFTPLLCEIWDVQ

Bile acid receptor [2] = target: T1, Bile acid receptor; experiment: Agonist activity at human FXR
Bile acid receptor [3] = target: T1, Bile acid receptor; experiment: Agonist activity at human FXR incubated for 24 hrs by luciferase reporter assay
[4] = target: Voltage-gated inwardly rectifying potassium channel KCNH2 (Homo sapiens, UniProt Q12809); experiment: Inhibition of hERG; type: toxicity
Bile acid receptor [5] = target: T1, Bile acid receptor; experiment: Agonist activity at human FXR in expressed in CHO cells by luciferase reporter assay; type: cell-based
[6] = target: Bile acid receptor (Homo sapiens) (UniProt Q96RI1); experiment: Agonist activity at FXR in human HepG2 cells at 3 uM relative to control; settings: filed as agonist
[7] = target: Bile acid receptor (Homo sapiens) (UniProt Q96RI1); experiment: Agonist activity at FXR in human HepG2 cells coexpressing BSEP at 0.3 uM relative to control; settings: filed as agonist
Bile acid receptor [8] = target: T1, Bile acid receptor; experiment: Agonist activity at FXR (unknown origin)
[9] = target: T2, Bifunctional epoxide hydrolase 2 (Homo sapiens, UniProt P34913); experiment: Inhibition of sEH (unknown origin)
T2 sequence (P34913 whole entry): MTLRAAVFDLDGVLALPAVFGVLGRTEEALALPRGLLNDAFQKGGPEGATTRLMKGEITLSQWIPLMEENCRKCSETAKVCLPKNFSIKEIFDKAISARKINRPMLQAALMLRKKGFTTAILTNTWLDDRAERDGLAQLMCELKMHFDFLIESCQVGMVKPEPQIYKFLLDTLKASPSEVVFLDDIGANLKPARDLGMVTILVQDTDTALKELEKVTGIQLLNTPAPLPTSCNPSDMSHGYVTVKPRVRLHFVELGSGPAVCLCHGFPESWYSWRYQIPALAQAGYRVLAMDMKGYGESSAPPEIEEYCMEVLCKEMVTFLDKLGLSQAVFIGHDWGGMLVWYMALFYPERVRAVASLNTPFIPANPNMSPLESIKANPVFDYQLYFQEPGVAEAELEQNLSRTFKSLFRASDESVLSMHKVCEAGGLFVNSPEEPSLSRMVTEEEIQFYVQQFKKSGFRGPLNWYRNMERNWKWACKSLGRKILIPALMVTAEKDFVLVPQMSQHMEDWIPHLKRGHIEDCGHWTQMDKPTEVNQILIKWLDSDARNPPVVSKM

Bile acid receptor [10] = target: T1, Bile acid receptor; experiment: Agonist activity at FXR in human HeLa cells incubated for 24 hrs by Dual-Glo luciferase assay; type: cell-based; settings: hela
Bile acid receptor [11] = target: T1, Bile acid receptor; experiment: Agonist activity at FXR in human HeLa cells by Dual-Glo luciferase assay; type: cell-based
[12] = Oral bioavailability in Sprague-Dawley rat at 5 mg/kg administered via gavage by LC-MS/MS analysis; type: ADME, organism-based; settings: in vivo
Bile acid receptor [13] = target: T1, Bile acid receptor; experiment: Agonist activity at FXR in HEK293T cells by steady-glo luciferase assay; type: cell-based

Chain of Voltage-gated inwardly rectifying potassium channel KCNH2 (Q12809 whole entry): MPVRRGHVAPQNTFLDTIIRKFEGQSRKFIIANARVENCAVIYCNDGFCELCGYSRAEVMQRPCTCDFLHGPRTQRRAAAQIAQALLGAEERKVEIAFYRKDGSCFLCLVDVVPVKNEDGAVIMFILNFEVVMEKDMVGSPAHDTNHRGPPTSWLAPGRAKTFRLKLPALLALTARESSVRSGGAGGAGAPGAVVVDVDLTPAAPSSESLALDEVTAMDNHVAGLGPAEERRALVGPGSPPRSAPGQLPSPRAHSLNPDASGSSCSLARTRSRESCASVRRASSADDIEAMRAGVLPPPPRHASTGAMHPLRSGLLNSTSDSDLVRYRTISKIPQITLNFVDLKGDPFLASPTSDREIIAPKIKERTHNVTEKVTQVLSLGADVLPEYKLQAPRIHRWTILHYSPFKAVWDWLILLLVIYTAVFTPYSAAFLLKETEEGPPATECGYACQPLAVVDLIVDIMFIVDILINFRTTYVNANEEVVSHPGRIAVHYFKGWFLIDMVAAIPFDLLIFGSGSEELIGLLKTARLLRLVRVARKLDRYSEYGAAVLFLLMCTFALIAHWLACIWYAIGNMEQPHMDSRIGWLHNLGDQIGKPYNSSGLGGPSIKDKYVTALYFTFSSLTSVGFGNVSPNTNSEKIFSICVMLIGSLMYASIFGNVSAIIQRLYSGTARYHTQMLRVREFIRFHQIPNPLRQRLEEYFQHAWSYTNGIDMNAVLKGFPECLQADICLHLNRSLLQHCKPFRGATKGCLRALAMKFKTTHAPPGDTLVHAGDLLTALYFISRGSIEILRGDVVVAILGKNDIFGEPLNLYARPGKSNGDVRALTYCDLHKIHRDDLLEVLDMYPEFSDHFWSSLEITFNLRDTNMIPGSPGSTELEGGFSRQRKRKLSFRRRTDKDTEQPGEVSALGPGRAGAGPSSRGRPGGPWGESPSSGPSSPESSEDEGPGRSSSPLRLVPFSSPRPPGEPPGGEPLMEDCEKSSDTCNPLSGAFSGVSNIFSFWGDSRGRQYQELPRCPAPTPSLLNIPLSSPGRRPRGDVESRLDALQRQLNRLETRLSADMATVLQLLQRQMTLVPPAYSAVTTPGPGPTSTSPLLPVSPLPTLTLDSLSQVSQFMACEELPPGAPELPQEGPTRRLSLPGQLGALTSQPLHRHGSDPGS

CS(=O)(=O)NC(=O)c1ccc(N2CCC3(CC2)CC(OCc2c(-c4ccccc4OC(F)(F)F)noc2C2CC2)CO3)nc1 (configuration not stated)
pEC50 (Bile acid receptor [1]): 7.57

CC(C)Oc1cc(C(=O)NS(=O)(=O)N2CCCC2)cc2sc(O[C@@H]3CO[C@H]4[C@H]3OC[C@H]4OCc3c(-c4c(Cl)cccc4Cl)noc3C3CC3)nc12
pEC50 (Bile acid receptor [2]): > 7.52

CC[C@H]1[C@@H](O)[C@@H]2[C@H](CC[C@]3(C)[C@@H]([C@H](C)CCNC(=O)NS(=O)(=O)c4ccc(C(C)(C)C)cc4)CC[C@@H]23)[C@@]2(C)CC[C@@H](O)[C@H](F)[C@@H]12
pEC50 (Bile acid receptor [3]): 7.72

Cc1cc(OCc2c(-c3c(Cl)cccc3Cl)noc2C2CC2)ccc1C1=NOC(c2cc(C(=O)O)nn2C(C)C)C1 (configuration not stated)
pIC50 [4]: < 4.52

CC[C@H]1[C@@H](O)[C@@H]2[C@H](CC[C@]3(C)[C@@H]([C@H](C)COC(=O)NS(=O)(=O)c4ccc(OC(C)C)cc4)CC[C@@H]23)[C@@]2(C)CC[C@@H](O)C[C@@H]12
pEC50 (Bile acid receptor [5]): > 9.00

C[C@H]1CC(OCc2c(-c3c(Cl)cccc3Cl)noc2C2CC2)C[C@H](C)N1c1nc2ccc(C(=O)O)cc2s1 (some centres not stated)
Activity [6]: 88%
Activity [7]: 100%

O=C(O)c1ccc([C@@H]2C[C@H]2c2ccc(OCc3c(-c4c(Cl)cccc4Cl)noc3C3CC3)cc2Cl)cc1
Activity [6]: 100%
Activity [7]: 60%

O=C(O)c1ccc(-c2nc(N3[C@@H]4CC[C@H]3C[C@@H](OCc3c(-c5c(Cl)cccc5Cl)noc3C3CC3)C4)no2)cc1
pEC50 (Bile acid receptor [8]): > 7.30

O=C(O)c1ccc(-c2nc(N3[C@@H]4CC[C@H]3C[C@@H](OCc3c(-c5c(Cl)cccc5Cl)noc3C3CC3)C4)no2)cc1F
pEC50 (Bile acid receptor [8]): > 7.30

O=C(O)c1ccc2nc(N3C[C@@H]4C[C@H]3C[C@H]4OCc3c(-c4c(Cl)cccc4Cl)noc3C3CC3)sc2c1
Activity [6]: 185%
Activity [7]: 166%

CC(C)(C)c1ccc(C(=O)Nc2ccc3ccn(Cc4ccc(C(=O)O)cc4)c3c2)cc1
pIC50 [9]: 5.54
pEC50 (Bile acid receptor [10]): 5.46

Cc1cc(OCc2c(-c3c(Cl)cccc3Cl)noc2C2CC2)ccc1C1=NOC(c2cccc(C(=O)O)c2)C1 (configuration not stated)
pIC50 [4]: < 4.52

O=C(O)c1cccc(NC(=O)c2ccc(OCc3ccccc3)cc2)c1
pEC50 (Bile acid receptor [11]): 8.04

O=C(O)c1ccc2c(c1)Oc1ccc(OCc3c(-c4ccccc4OC(F)(F)F)noc3C3CC3)nc1C1(CC1)C2
bioavailability [12]: 71.3%

O=C(O)c1cc(F)c2nc(N3[C@@H]4CC[C@H]3C[C@@H](OCc3c(-c5c(Cl)cccc5Cl)noc3C3CC3)C4)sc2c1
pEC50 (Bile acid receptor [8]): 8.11

O=C(O)CNC(=O)c1ccc(N2CCC3(CC2)CC(OCc2c(-c4ccccc4OC(F)(F)F)noc2C2CC2)CO3)nc1 (configuration not stated)
pEC50 (Bile acid receptor [1]): 8.77

Cc1cc(OCc2c(-c3c(Cl)cccc3Cl)noc2C2CC2)ccc1C1=NOC(c2cc(C(=O)O)nn2C)C1 (configuration not stated)
pIC50 [4]: < 4.52
pEC50 (Bile acid receptor [13]): 8.00

O=C(O)c1ccc2c(c1)CN(C(=O)N1[C@@H]3CC[C@H]1C[C@@H](OCc1c(-c4c(Cl)cccc4Cl)noc1C1CC1)C3)C2
pEC50 (Bile acid receptor [13]): 8.00

O=C(O)c1cc(F)c2nc(N3C[C@@H]4CC[C@H]3C[C@@H]4OCc3c(-c4ccccc4OC(F)(F)F)noc3C3CC3)sc2c1
Activity [6]: 125%
Activity [7]: 84%

COc1cc(C(=O)O)ccc1Cn1ccc2ccc(NC(=O)c3ccc(C(C)(C)C)cc3)cc21
pIC50 [9]: 5.77
pEC50 (Bile acid receptor [10]): 6.59
